Experiment: Olopatadine-PDE4 Inhibitor Solubility Study
Type: physicochemical
Settings: for effect on the aqueous solubility of olopatadine: 0.1-1% PDE4 inhibitor, FIGS. 1 and 2; for ratio of solubility enhancement: molecules of Compound per olopatadine molecule, straight line fit
Method: The following experiments were conducted to determine the effect of compounds of Formula I on the aqueous solubility of olopatadine.
Formulations with the compositions shown in Table 1 were prepared for olopatadine solubility testing as follows: ten milliliter samples of the formulations containing either 0%, 0.1%, 0.3%, or 1% of either Compound 1 (4-(3,5-Dichloropyridin-4-ylamino)-7-methoxy-8-(6-(4-methylpiperazin-1-yl)hexyloxy)quinolin-2(1H)-one) or Compound 2 (4-(3,5-Dichloropyridin-4-ylamino)-7-methoxy-8-(6-morpholinohexyloxy)quinolin-2(1H)-one) with at least 1% Olopatadine Hydrochloride as shown in Table 2 were prepared and adjusted to the target pH. […] The samples were mixed on a rocker and the pH was readjusted to the target pH after one and six days of mixing. On day seven, the samples were filtered through an Acrodisc 25 mm GXF/GHP 0.2 micron filter. The first three milliliters of filtrate were collected for final pH measurement and the next 3 milliliters of filtrate were filled into two 1.5 mL HPLC vials for the olopatadine assay (as free base) as shown below. Compound 1 was not assayed in samples A through H as an assay method was not available. Duplicate Compound 1/Olopatadine samples for the olopatadine assay were injected neat into the HPLC. Compound 2 and olopatadine were assayed in samples I, J, and K. Single Compound 2/Olopatadine samples were diluted 1/10 with 50/50 Acetonitrile/Water and injected into the UPLC.
The final pH of the filtered samples was measured with an Orion 525A+pH meter using a Ross Semimicro combination pH electrode and automatic temperature probe.
The Compound 1 and Olopatadine HPLC assay was conducted using the following conditions: • Instrument: Waters 2695 Separation Module and Waters 2487 • Variable Wavelength Ultraviolet-Visible Detector with Empower Software • Column: Phenomenex Ultracarb C8, 5 micron, 150×4.6 mm • Mobile Phase: • Solvent A=Acetonitrile • Solvent B=100 milliMolar Potassium Phosphate with 0.1% Triethylamine adjusted to pH 3.0 with NaOH/HC1 • Flowrate=1 milliliter/Minute • Gradient:
• Detection: 299 nm Ultraviolet Absorbance • Injection Volume: 20 microliters • Olopatadine Retention Time: About 6.2 minutes
The Compound 2 and Olopatadine UPLC assay was conducted using the following conditions: • Instrument: Waters ACQUITY UPLC System with TUV Detector and Empower Software • Column: Acquity UPLC BEH Shield C18, 1.7 micron, 100×2.1 mm • Mobile Phase: • Solvent A=0.1% Phosphoric Acid adjusted to pH 3.0 with NaOH/HCl • Solvent B=Acetonitrile • Flowrate=0.3 milliliter/Minute • Gradient:
• Detection: 285 nm Ultraviolet Absorbance • Injection Volume: 3 microliters • AL-53817 Retention Time: About 4.1 minutes • Olopatadine Retention Time: About 4.5 minutes
The target pH of samples E through K was 5.2 and the pH readings of the suspensions were close to this value prior to filtration. However, after filtration the solution pH was generally about 0.2 pH units higher than the suspension pH. This pH shift is commonly observed when measuring the pH of a suspension versus a solution. Duplicate samples of A through H were assayed and the duplicate values were averaged.
The milliMolar (mM) concentrations were calculated by dividing the % w/v concentrations by the molecular weight and multiplying by 10000.

Compound | effect on the aqueous solubility of olopatadine | ratio of solubility enhancement | solubility of the PDE4 inhibitor in the formulation (pH 7.4)
COc1ccc2c(Nc3c(Cl)cncc3Cl)cc(=O)[nH]c2c1OCCCCCCN1CCOCC1 [Compound 2, 4-(3,5-Dichloropyridin-4-ylamino)-7-methoxy-8-(6-morpholinohexyloxy)quinolin-2(1H)-one] | increased the aqueous solubility of olopatadine in a linear concentration dependent manner | about two molecules of the Compounds to one olopatadine molecule | not sufficiently soluble
COc1ccc2c(Nc3c(Cl)cncc3Cl)cc(=O)[nH]c2c1OCCCCCCN1CCN(C)CC1 [Compound 1, 4-(3,5-Dichloropyridin-4-ylamino)-7-methoxy-8-(6-(4-methylpiperazin-1-yl)hexyloxy)quinolin-2(1H)-one] | increased the aqueous solubility of olopatadine in a linear concentration dependent manner | about two molecules of the Compounds to one olopatadine molecule | –

Source: US20140107121A1, “OLOPATADINE COMPOSITIONS AND USES THEREOF” (Alcon Research, Ltd., priority 2009, published 2014)
